According to patent US20160297833A1, “THIENOPYRIMIDINES AS MKNK1 AND MKNK2 INHIBITORS” (BAYER PHARMA AKTIENGESELLSCHAFT, priority 2013, published 2016):
Like-named read-outs stand apart in the source and are kept apart here.

Biological target: T1, human full-length MKNK1 (Homo sapiens, UniProt Q9BUB5, T385D)
T1 construct: GST (N); purchased Carna Biosciences 02-145; host or cells: insect cells (baculovirus expression system)
Assay: MKNK1 kinase high ATP assay (TR-FRET)
Type: biochemical
Settings: for Activity-Ratio MKNK1: Table 2, ratio of the IC50-value of an R-enantiomer and its corresponding S-enantiomer
Method in brief: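 Full-length human MKNK1 (T385D) preincubated 15 min at 22 °C with compound in HEPES pH 7.5/MgCl2/DTT buffer; reaction with 2 mM ATP (final) and 0.06 μM biotinylated peptide (final), 30 min at 22 °C.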

[1] = Table 1, MKNK1 kinase high ATP assay, 2 mM ATP, read-out: MKNK1 IC50

T1 sequence (Q9BUB5 1-424 isoform Q9BUB5-2 T344D): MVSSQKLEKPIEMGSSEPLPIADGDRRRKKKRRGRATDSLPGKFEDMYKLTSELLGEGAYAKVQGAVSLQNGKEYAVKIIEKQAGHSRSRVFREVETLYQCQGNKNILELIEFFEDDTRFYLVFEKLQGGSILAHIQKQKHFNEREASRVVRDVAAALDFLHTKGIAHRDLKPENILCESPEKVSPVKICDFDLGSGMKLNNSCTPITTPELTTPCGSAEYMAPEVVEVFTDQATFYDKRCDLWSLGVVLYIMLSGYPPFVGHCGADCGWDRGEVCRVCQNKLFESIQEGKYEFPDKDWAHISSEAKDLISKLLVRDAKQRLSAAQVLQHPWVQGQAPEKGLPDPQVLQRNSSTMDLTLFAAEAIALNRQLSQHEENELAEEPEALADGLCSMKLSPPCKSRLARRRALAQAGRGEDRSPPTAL

COc1cc2[nH]ncc2cc1Nc1ncnc2sc3c(c12)CC[C@H](C(=O)N1C[C@H](C)O[C@@H](C)C1)C3 [Example 210, [(2S,6S)-2,6-Dimethylmorpholin-4-yl]{(7S)-4-[(6-methoxy-1H-indazol-5-yl)amino]-5,6,7,8-tetrahydro[1]benzothieno[2,3-d]pyrimidin-7-yl}methanone]
IC50 [1]: 0.4 nM

COc1cc2[nH]ncc2cc1Nc1ncnc2sc3c(c12)CC[C@H](C(=O)N(C)CC(C)(C)C)C3 [Example 177, (7S)—N-(2,2-Dimethylpropyl)-4-[(6-methoxy-1H-indazol-5-yl)amino]-N-methyl-5,6,7,8-tetrahydro[1]benzothieno[2,3-d]pyrimidine-7-carboxamide]
IC50 [1]: 2.6 nM

CN(C)C(=O)[C@H]1CCc2c(sc3ncnc(Nc4cc5cn[nH]c5cc4OCCN4CCCCC4)c23)C1 [Example 113, (7S)—N,N-Dimethyl-4-({6-[2-(piperidin-1-yl)ethoxy]-1H-indazol-5-yl}amino)-5,6,7,8-tetrahydro[1]benzothieno[2,3-d]pyrimidine-7-carboxamide]
IC50 [1]: 634 nM

CCOc1cc2[nH]ncc2cc1Nc1ncnc2sc3c(c12)CC[C@@H](C(=O)N1CCC(=O)CC1)C3 [Example 69, 1-({(7R)-4-[(6-Ethoxy-1H-indazol-5-yl)amino]-5,6,7,8-tetrahydro[1]benzothieno[2,3-d]pyrimidin-7-yl}carbonyl)piperidin-4-one]
IC50: 2.5 nM

COc1cc2[nH]ncc2cc1Nc1ncnc2sc3c(c12)CC[C@H](C(=O)N(C)C(C)C)C3 [Example 26, (7S)-4-[(6-Methoxy-1H-indazol-5-yl)amino]-N-methyl-N-(propan-2-yl)-5,6,7,8-tetrahydro[1]benzothieno[2,3-d]pyrimidine-7-carboxamide]
IC50 [1]: 0.2 nM | Activity-Ratio MKNK1: 172.9

COc1cc2[nH]ncc2cc1Nc1ncnc2sc3c(c12)CC[C@H](C(=O)N(C)CCCn1ccnc1)C3 [Example 170, (7S)—N-[3-(1H-Imidazol-1-yl)propyl]-4-[(6-methoxy-1H-indazol-5-yl)amino]-N-methyl-5,6,7,8-tetrahydro[1]benzothieno[2,3-d]pyrimidine-7-carboxamide]
IC50 [1]: 0.6 nM

CC(C)Oc1cc2[nH]ncc2cc1Nc1ncnc2sc3c(c12)CC[C@H](C(=O)N(C)C)C3 [Example 78, (7S)—N,N-Dimethyl-4-{[6-(propan-2-yloxy)-1H-indazol-5-yl]amino}-5,6,7,8-tetrahydro[1]benzothieno[2,3-d]pyrimidine-7-carboxamide]
IC50 [1]: 0.3 nM | Activity-Ratio MKNK1: 42.9
